Consider 2 compounds from US20240059688A1, “CONOLIDINE ANALOGUES AS SELECTIVE ACKR3 MODULATORS FOR THE TREATMENT OF CANCER” (Luxembourg Institute of Health (LIH), priority 2020, published 2024).

Format in all cases: cell-based
One assay has as its target MOR (Homo sapiens, UniProt P35372). Put plainly: NanoBiT-based β-arrestin-2 recruitment assay, MOR. Further details: expressed in transfected cells; host or cells: U87. The note with it: concentration range 0.15 nM to 80 μM; reference BAM22. How it is done:
(§1) The ability of the different molecules to activate the four opioid receptors MOR, DOR, KOR and NOP that are known to mediate in vivo analgesic effects was tested using the NanoBiT-based β-arrestin-2 recruitment assay in a concentration range of 0.15 nM to 80 μM. For each of these receptors a reference ligand corresponding to an endogenous opioid peptide i.e. Met-enkephalin, BAM22, Dynorphin A and Nociceptin, respectively was included.
(§2) Ligand-induced β-arrestin recruitment to chemokine and opioid receptors was monitored by NanoLuc complementation assay (NanoBiT, Promega). In brief, 1.2×10^6 U87 cells were plated in 10-cm culture dishes and 48 hours later co-transfected with pNBe vectors encoding GPCRs (ACKR3, MOR, DOR, KOR, or NOP) C-terminally tagged with SmBiT and human β-arrestin-1 (arrestin-2) or β-arrestin-2 (arrestin-3) N-terminally fused to LgBiT. 48 hours post-transfection cells were harvested, incubated 25 minutes at 37° C. with Nano-Glo Live Cell substrate diluted 200-fold and distributed into white 96-well plates (5×10^4 cells per well). Ligand-induced, β-arrestin to GPCRs was evaluated with a Mithras LB940 luminometer (Berthold Technologies, running on MicroWin 2010 5.19 software (Mikrotek Laborsysteme)) for 20 minutes.
(§3) For concentration-response curves (FIG. 2), the signal recorded with a saturating concentration of full agonist for each receptor was set as 100%. […]
In general terms: Arrestin recruitment assays detect the binding of arrestin to an activated receptor.

For a further assay, the target named is ACKR3 (Homo sapiens, UniProt P25106). Put plainly: NanoBiT-based β-arrestin-2 recruitment assay, human ACKR3 in U87 cells. The following applies: for agonist efficacy at hACKR3 compared to CXCL-12: NanoBiT β-arrestin recruitment, reference ligand CXCL-12; for EC50: NanoBiT, U87 cells, FIG. 1 section A, read-out: EC50, β-arrestin-2 recruitment to hACKR3. The arrangement: expressed in transfected cells; host or cells: U87. How it is done:
Concentration-response studies were performed with molecules WW-1 (conolidine) and WW-12 on the human and mouse ACKR3 receptors in U87 cells using a NanoBiT-based β-arrestin-2 recruitment assay […] to evaluate their efficacy and potency towards the two receptors.
as §2
For concentration-response curves (FIG. 2), the signal recorded with a saturating concentration of full agonist for each receptor was set as 100%. To evaluate the antagonist properties of ligands, full agonists of each receptor (50 nM BAM22 for MOR, 50 nM dynorphin A for KOR, 70 nM met-enkephalin for DOR, 70 nM nociceptin for NOP and 4 nM CXCL12 for ACKR3) were added after the 20-minute incubation with the ligands.

A further assay addresses T1, NOP (Homo sapiens, UniProt P41146).
T1 construct: expressed in transfected cells; host or cells: U87
The assay is described as follows: NanoBiT-based β-arrestin-2 recruitment assay, NOP. The note with it: concentration range 0.15 nM to 80 μM; reference Nociceptin. How it is done: as §1, §2, §3

The next assay addresses DOR (Homo sapiens, UniProt P41143). Put plainly: NanoBiT-based β-arrestin-2 recruitment assay, DOR. Further details: expressed in transfected cells; host or cells: U87. The following applies: concentration range 0.15 nM to 80 μM; reference Met-enkephalin. How it is done:
as §1, §2, §3

For the next assay, the target named is T2, human CXCR4 (Homo sapiens, UniProt P61073).
T2 construct: host or cells: C2C12
T2 sequence (P61073 whole entry): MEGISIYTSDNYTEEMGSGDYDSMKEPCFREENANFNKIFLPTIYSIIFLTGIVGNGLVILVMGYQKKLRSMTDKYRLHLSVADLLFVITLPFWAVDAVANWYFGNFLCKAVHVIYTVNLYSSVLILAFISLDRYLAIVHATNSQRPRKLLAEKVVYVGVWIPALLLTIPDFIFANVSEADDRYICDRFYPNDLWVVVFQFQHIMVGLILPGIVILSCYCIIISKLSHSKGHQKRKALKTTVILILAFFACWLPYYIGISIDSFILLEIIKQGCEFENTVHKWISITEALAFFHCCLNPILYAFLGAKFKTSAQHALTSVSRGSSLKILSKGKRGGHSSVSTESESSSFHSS
The assay is described as follows: CXCR4 β-arrestin recruitment assay (PathHunter). The following applies: human CXCR4-C2Cl2 cells, relative to CXCL-12. In a few lines:
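Agonist mode in PathHunter CHO cells expressing human ACKR3-β-arrestin-2, compounds added in DPBS/1% DMSO for 1.5 hr at 37° C, then detection 1 hr at room temperature, luminescence read. CXCR4 run in C2C12 cells with a 3 hr Cell Plating Reagent 4 preincubation. EC50 and % Emax from three-parameter fits, CXCL-12 as reference agonist; ≥2 independent experiments in duplicate.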

Chain of ACKR3 (P25106 whole entry): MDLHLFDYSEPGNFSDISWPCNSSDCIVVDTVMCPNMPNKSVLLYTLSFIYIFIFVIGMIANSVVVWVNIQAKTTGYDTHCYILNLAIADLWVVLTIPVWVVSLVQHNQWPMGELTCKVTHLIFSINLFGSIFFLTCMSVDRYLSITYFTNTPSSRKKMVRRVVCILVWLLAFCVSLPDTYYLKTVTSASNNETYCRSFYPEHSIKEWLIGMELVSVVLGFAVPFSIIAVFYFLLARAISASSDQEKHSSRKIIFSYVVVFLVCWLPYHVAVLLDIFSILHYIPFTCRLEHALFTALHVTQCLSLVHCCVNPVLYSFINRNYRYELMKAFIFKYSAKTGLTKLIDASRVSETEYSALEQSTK
Chain of ACKR3 (P32121 whole entry partner): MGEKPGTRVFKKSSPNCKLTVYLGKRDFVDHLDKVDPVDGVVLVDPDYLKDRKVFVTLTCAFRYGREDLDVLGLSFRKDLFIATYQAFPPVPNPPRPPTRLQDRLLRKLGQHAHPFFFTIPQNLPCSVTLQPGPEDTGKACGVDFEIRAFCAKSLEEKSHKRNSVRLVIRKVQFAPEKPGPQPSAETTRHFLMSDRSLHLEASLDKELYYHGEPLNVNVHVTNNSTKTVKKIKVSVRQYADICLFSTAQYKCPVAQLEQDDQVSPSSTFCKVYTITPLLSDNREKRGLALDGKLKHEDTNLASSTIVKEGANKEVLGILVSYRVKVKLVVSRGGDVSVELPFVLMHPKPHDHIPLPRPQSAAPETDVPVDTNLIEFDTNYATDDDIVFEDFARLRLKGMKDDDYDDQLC
Chain of MOR (P35372 whole entry): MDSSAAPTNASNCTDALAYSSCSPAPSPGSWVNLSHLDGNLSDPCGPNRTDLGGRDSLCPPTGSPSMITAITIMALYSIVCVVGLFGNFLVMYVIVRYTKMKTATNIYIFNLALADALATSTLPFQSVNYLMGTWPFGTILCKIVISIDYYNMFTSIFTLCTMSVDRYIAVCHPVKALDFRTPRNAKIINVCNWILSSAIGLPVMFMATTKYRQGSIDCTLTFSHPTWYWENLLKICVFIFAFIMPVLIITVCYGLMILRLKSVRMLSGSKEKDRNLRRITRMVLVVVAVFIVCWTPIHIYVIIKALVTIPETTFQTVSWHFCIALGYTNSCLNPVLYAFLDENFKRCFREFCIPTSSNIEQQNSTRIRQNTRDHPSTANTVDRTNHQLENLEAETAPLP
T1 sequence (P41146 whole entry): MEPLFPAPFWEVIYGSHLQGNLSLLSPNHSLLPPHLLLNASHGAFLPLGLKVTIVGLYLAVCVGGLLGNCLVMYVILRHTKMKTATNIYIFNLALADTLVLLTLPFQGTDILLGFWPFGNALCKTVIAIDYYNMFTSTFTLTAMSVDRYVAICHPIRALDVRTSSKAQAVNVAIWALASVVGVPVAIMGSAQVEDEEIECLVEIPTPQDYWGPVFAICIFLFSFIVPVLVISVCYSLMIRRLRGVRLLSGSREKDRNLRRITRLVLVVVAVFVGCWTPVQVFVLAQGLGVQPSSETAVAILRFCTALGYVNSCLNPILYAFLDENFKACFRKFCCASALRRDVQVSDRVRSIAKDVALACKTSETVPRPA
Chain of DOR (P41143 whole entry): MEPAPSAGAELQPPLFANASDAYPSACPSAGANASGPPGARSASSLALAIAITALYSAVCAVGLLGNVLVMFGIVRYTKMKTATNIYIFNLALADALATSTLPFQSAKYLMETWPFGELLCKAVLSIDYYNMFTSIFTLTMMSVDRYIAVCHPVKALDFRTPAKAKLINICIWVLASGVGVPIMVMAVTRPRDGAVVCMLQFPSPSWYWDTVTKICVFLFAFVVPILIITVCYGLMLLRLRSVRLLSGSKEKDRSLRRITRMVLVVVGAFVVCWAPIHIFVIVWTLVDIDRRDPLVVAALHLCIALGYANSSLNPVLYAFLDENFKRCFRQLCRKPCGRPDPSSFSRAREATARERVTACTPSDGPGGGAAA

For orientation: EC50 means the concentration giving half of the maximal effect. For the compound `C/C=C1/CN2CC[C@H]1C(=O)c1[nH]c3ccccc3c1C2` [WW-1, (4E,5R)-4-ethylidene-1,4,5,7-tetrahydro-2,5-ethanoazocino[4,3-b]indol-6(3H)-one], at MOR, the “activation of MOR (β-arrestin-2 recruitment)” value is “not active”. For the same compound, the figures for the “agonist efficacy at hACKR3 compared to CXCL-12” value at ACKR3 and on ACKR3 (listed as conolidine) were “full agonists” and “full agonist”, respectively. Further, the EC50 on ACKR3 was 16.6 µM. The “activation of NOP (β-arrestin-2 recruitment)” value at NOP is listed as “not active”. In addition, the “activation of DOR (β-arrestin-2 recruitment)” value at DOR was “not active”. In addition, the “CXCR4 β-arrestin % CXCL-12Emax (n = 2)” value on human CXCR4 was found to be 3%.
On to `C/C=C1/CN(CCCCC)CC[C@H]1C(=O)c1cc2ccccc2[nH]1` [WW-12, [(3E,4R)-3-ethylidene-1-pentylpiperidin-4-yl](1H-indol-2-yl)methanone], for which the “activation of MOR (β-arrestin-2 recruitment)” value at MOR is given as “not active”. For the same compound, on ACKR3, the “agonist efficacy at hACKR3 compared to CXCL-12” value is “full agonists” and the EC50 stood at 0.7 µM. For the same compound, the “activation of NOP (β-arrestin-2 recruitment)” value at NOP is recorded as “not active”. For the same compound, on DOR, the “activation of DOR (β-arrestin-2 recruitment)” value is given as “not active”. In addition, the “CXCR4 β-arrestin % CXCL-12Emax (n = 2)” value on human CXCR4 is given as 4%.
